Results on eleven molecules are retold here after patent publication US5314901A, “1,2,5,6-tetrahydropyridine oxime compounds” (Beecham Group p.l.c., priority 1990, dated 1994).

SMILES strings stand for the structures. Where a name gives a salt, the structure may show the parent alone.

The target of experiment [1] is muscarinic receptors (3H-QNB), cerebral cortex. The experiment can be described thus: Radio ligand binding: displacement of the muscarinic antagonist 3H-Quinuclidinyl Benzilate (3H-QNB) from rat cerebral cortex membranes. Also on record: species or system Hooded Lister rats. The conditions noted are these: displacement of 0.27 nM 3H-QNB (muscarinic antagonist), 37° C., 30 min.

Experiment [2] has as its target muscarinic receptors (3H-OXO-M), cerebral cortex. The experiment can be described thus: Radio ligand binding: displacement of the muscarinic agonist 3H-Oxotremorine-M (3H-OXO-M) from rat cerebral cortex membranes. Also noted: species or system Hooded Lister rats. The conditions noted are these: displacement of 2 nM 3H-OXO-M (muscarinic agonist), 2 mM magnesium chloride, 37° C., 30 min.

By IC50 is commonly meant the midpoint of a concentration-inhibition curve. Consider `CON=C(C#N)C1=CCCNC1` [E 10, α-(Methoxyimino)-α-(1,2,5,6-tetrahydropyridin-3-yl)acetonitrileoxalate salt], for which the IC50 is 1.15 µM in experiment [1] and 35 nM in experiment [2].

As for `CON=C(Cl)C1=CCCN(C)C1` [E 1, 1-Methyl-1,2,5,6-tetrahydropyridin-3-yl-N-methoxycarboximidoyl chloride oxalate salt], the results for the IC50 in experiment [1] and in experiment [2] were 2.8 µM and 259 nM, respectively.

As for `CON=C(F)C1=CCCN(C)C1` [E 2, 1-Methyl-1,2,5,6-tetrahydropyridin-3-yl-N-methoxycarboximidoyl fluoride oxalate salt], the IC50 in experiment [1] is 1.5 µM; in experiment [2], 39 nM.

With `CON=C(Cl)C1=CCCNC1` [E 9, 1,2,5,6-Tetrahydropyridin-3-yl-N-methoxycarboximidoyl chloride oxalate salt], the IC50 was 4.7 µM in experiment [1] and 180 nM in experiment [2].

Turning to `CON=C(C1=CCCN(C)C1)C(F)(F)F` [E 4, E- and Z-1-Methyl-3-(α,α,α-trifluoroacetyl)-1,2,5,6-tetrahydropyridine-O-methyl oxime oxalate salt], the IC50 in experiment [1] stood at 16.5 µM; in experiment [2] it was 225 nM.

Turning to `CON=C(C#N)C1=CCCN(C)C1` [E 3, α-(Methoxyimino)-α-(1-methyl-1,2,5,6-tetrahydropyridin-3-yl) acetonitrile oxalate salt], the IC50 in experiment [1] came out at 9.5 µM; in experiment [2] it was 215 nM.

As to `CO/N=C(\CF)C1=CCCN(C)C1` [E 6, Z-1-Methyl-3-(α-fluoroacetyl)-1,2,5,6-tetrahydropyridine-O-methyl oxime oxalate salt], the IC50 in experiment [1] worked out at 8.5 µM; in experiment [2], 620 nM.

`CCN1CCC=C(C(C#N)=NOC)C1` [E 11, α-(Methoxyimino)-α-(1-ethyl-1,2,5,6-tetrahydropyridin-3-yl) acetonitrile oxalate salt] yielded an IC50 in experiment [2] of 1180 nM.

With `CO/N=C(\CF)C1=CCCNC1` [E 7, Z-3-(α-Fluoroacetyl)-1,2,5,6-tetrahydropyridine-O-methyl oxime hydrochloride salt], the IC50 in experiment [1] turned out to be 17 µM; in experiment [2], 420 nM.

For the molecule `CON=C(C1=CCCN(C)C1)C(F)F` [E 5, E- and Z-1-Methyl-3-(α,α-difluoroacetyl)-1,2,5,6-tetrahydropyridine-O-methyl oxime oxalate salt], the IC50 in experiment [2] was determined as 1250 nM.

For the molecule `CON=C(F)C1=CCCNC1` [E 8, 1,2,5,6-Tetrahydropyridin-3-yl-N-methoxycarboximidoyl fluoride oxalate salt], the IC50 in experiment [1] turned out to be 2.85 µM; in experiment [2] it was 41 nM.
